{"source": "ChEMBL document CHEMBL1201862", "about": "“PubChem BioAssay data set” (2004)", "key": {"[1]": {"target": "T1, High affinity choline transporter 1 (Homo sapiens, UniProt Q9GZV3)", "T1 sequence (Q9GZV3 whole entry)": "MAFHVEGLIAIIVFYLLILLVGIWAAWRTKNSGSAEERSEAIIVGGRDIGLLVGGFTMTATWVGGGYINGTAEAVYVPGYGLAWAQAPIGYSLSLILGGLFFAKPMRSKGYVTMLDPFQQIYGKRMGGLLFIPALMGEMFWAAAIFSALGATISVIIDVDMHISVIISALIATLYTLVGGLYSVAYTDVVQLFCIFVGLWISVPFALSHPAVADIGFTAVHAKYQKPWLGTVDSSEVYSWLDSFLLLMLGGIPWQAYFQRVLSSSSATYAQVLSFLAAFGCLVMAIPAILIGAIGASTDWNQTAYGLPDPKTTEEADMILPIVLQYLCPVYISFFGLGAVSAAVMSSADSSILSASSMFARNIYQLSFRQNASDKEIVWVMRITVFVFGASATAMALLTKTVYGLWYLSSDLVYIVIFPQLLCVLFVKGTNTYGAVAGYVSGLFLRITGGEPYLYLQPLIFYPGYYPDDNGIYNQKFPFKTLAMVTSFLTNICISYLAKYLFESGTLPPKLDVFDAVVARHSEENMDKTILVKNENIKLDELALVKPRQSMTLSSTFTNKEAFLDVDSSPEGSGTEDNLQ", "assay": "human choline transporter blockers, potency – cell-based, 5-point CRC, membrane potential dye, dose response (AID 504840)", "assay_type": "functional"}, "Aminopeptidase N": {"target": "T2, Aminopeptidase N (Plasmodium falciparum FcB1/Columbia, UniProt O96935)", "T2 sequence (O96935 whole entry)": "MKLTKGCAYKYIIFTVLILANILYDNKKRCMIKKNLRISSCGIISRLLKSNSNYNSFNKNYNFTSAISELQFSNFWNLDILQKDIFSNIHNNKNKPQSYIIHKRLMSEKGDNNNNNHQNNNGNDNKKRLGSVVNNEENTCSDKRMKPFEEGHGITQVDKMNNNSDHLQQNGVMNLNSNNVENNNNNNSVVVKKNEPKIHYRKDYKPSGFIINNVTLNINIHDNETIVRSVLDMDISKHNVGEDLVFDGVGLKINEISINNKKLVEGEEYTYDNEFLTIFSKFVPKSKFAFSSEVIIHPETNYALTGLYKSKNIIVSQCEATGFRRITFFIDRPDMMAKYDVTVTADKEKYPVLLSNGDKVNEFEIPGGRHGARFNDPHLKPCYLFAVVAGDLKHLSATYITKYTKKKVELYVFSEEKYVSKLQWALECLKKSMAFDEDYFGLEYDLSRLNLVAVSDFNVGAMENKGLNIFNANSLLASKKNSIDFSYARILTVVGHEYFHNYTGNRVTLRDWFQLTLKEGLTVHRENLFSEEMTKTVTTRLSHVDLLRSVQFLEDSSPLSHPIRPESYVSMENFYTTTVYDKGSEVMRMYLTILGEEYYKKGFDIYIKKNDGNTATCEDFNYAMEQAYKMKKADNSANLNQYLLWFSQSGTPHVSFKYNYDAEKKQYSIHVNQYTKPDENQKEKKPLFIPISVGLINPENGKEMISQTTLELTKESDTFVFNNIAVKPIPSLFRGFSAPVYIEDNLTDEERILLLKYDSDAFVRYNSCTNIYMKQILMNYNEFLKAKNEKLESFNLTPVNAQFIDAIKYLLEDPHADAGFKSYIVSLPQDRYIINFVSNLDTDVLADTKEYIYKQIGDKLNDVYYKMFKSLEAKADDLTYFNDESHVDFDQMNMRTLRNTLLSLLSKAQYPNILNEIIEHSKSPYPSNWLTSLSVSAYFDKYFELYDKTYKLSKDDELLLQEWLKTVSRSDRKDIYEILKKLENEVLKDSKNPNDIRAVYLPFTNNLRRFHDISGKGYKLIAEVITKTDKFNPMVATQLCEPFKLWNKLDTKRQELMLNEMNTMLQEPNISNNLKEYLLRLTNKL", "assay": "malaria alanyl aminopeptidase activity blockers – biochemical, fluorogenic H-Leu-NHMec substrate, 1536-well (AID 1445)", "design": "species or system Plasmodium falciparum 3D7, 3D7"}, "Nonstructural protein 1": {"target": "Nonstructural protein 1 (Influenza A virus, UniProt Q194T2)", "sequence (Q194T2 whole entry)": "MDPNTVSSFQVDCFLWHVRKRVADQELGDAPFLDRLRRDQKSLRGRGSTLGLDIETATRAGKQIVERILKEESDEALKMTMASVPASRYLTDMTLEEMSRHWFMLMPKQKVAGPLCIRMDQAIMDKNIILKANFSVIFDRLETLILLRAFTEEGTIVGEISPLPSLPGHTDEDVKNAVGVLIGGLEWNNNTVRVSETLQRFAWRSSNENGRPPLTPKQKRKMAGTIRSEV", "assay_type": "functional, Influenza A virus (A/California/07/2009(H1N1))"}, "[2]": {"assay": "HEK-293T viability loss after treatment – luminescence, T-cell screen hits, cytotoxicity control for TCR NF-kB inhibitor project, dose response (AID 489026);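 further: cells exposed to compound about 14 hours before the viability readout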", "assay_type": "functional, cell-based"}, "[3]": {"assay": "loss of viability in HepG2 cells – cell-based, CellTiter-Glo, cherry-picked, cytotoxicity control for Shn3 inhibitor project, dose response (AID 624134)", "assay_type": "functional"}, "[4]": {"assay": "reduction of Shn3 3'UTR-driven luciferase in osteoblasts – cell-based, Clone20 osteoblasts, firefly luciferase, cherry-picked, dose response (AID 624132)", "assay_type": "functional"}, "[5]": {"assay": "non-specific 3'UTR reporter inhibition in Clone20-Shn3RL – cell-based, Renilla luciferase, cherry-picked, counter-screen for Shn3 inhibitor project, dose response (AID 624133)", "assay_type": "functional"}, "INS1": {"tested_on": "INS1", "assay": "INS-1E survival protection against cytokine death – cell-based, luminescence, retest, dose response (AID 449756);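 further: cell death triggered by IL-1 beta plus TNF-alpha plus IFN-gamma mixture; protective hits raise ATP signal compared with cytokine alone wells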", "assay_type": "functional", "conditions": "Rattus norvegicus"}, "[6]": {"assay": "Luminescence Cell-Based Dose Retest to Confirm Inhibitors of Cancer Stem Cells. [Related pubchem assays (depositor defined):AID2717, AID2721]", "assay_type": "functional", "conditions": "Homo sapiens"}, "[7]": {"assay": "A549 cell cytotoxicity, dose response, cytotoxicity control, plate reader, cherry-pick, antagonist series (AID 743412)", "assay_type": "functional, cell-based"}, "[8]": {"target": "Heat shock protein HSP 90-alpha (Homo sapiens, UniProt P07900)", "assay_type": "functional, organism-based"}}, "note": "The source made the active and inactive calls.", "data": [{"smiles": "CCOC(=O)C1=C(COC(=O)c2ccc(OC(C)C)cc2)NC(=O)NC1C", "note": "(centres undefined)", "values": [{"measurement": "IC50", "setting": "[1]", "value": "16.6 µM (active)"}]}, {"smiles": "CN(C)Cc1c(O)c(Cl)cc2c3c(c(=O)oc12)CCCC3", "values": [{"measurement": "IC50", "setting": "Aminopeptidase N", "value": "30.1 µM (active)"}]}, {"smiles": "COC(=O)c1ccc(CSc2nc3c(c(=O)n2-c2ccccc2)SCC3)o1", "values": [{"measurement": "IC50", "setting": "Nonstructural protein 1", "value": "> 100 µM (active)"}]}, {"smiles": "Cc1ccc(C[S+]([O-])Cc2ccc(C(=O)NC3CCCCCC3)o2)cc1", "note": "(centres undefined)", "values": [{"measurement": "IC50", "setting": "[1]", "value": "14.5 µM (active)"}]}, {"smiles": "Cc1ccc(-c2cc(C(F)F)n3ncc(C(=O)N4CCc5ccccc54)c3n2)cc1", "values": [{"measurement": "IC50", "setting": "[2]", "value": "> 80 µM (inactive)"}]}, {"smiles": "CC(C)(C)C(=O)/C(=C/c1ccc(Cl)cc1)n1cncn1", "values": [{"measurement": "AC50", "setting": "[3]", "value": "18 µM (active)"}, {"measurement": "AC50", "setting": "[4]", "value": "3.75 µM (active)"}, {"measurement": "AC50", "setting": "[5]", "value": "10.8 µM (active)"}]}, {"smiles": "CCn1c(CNC(=O)c2cccs2)nnc1SCC(=O)Nc1cc(Cl)ccc1C", "values": [{"measurement": "IC50", "setting": "Aminopeptidase N", "value": "6.86 µM (active)"}]}, {"smiles": "Cc1ccc(N=C(N)Nc2nc(O)cc(CSc3nnc(C)s3)n2)c(C)c1", "values": [{"measurement": "IC50", "setting": "[2]", "value": "> 80 µM (inactive)"}]}, {"smiles": "O=C1N=C(NS(=O)(=O)c2ccccc2)S/C1=C1\\C(=O)Nc2ccccc21", "values": [{"measurement": "IC50", "setting": "Aminopeptidase N", "value": "25.1 µM (active)"}]}, {"smiles": "COCCNc1oc(/C=C/c2ccccc2)nc1C#N", "values": [{"measurement": "IC50", "setting": "Aminopeptidase N", "value": "36.7 µM (active)"}]}, {"smiles": "C=CCN1C(=O)/C(=N\\Nc2c(C)n(C)n(-c3ccccc3)c2=O)C(=O)NC1=S", "values": [{"measurement": "IC50", "setting": "Nonstructural protein 1", "value": "2.29 µM (active)"}]}, {"smiles": "Cc1cc([N+](=O)[O-])c(NC2CCCCC2)c([N+](=O)[O-])c1", "values": [{"measurement": "IC50", "setting": "Nonstructural protein 1", "value": "41.5 µM (active)"}]}, {"smiles": "CCCOc1ccc(/C=N/Nc2cc(N3CCOCC3)ncn2)c(O)c1", "values": [{"measurement": "AC50", "setting": "INS1", "value": "2.27 µM (active)"}, {"measurement": "AC50", "setting": "[6]", "value": "2.87 µM (active)"}, {"measurement": "IC50", "setting": "[2]", "value": "> 80 µM (inactive)"}]}, {"smiles": "C[C@H](CO)N1C[C@H](C)[C@H](CN(C)C(=O)CN2CCOCC2)Oc2ncc(C#CCN(C)C)cc2C1=O", "values": [{"measurement": "AC50", "setting": "[7]", "value": "> 52 µM (inactive)"}]}, {"smiles": "COc1cc2cnc(-c3ccccc3)c(C(=O)c3ccc(F)cc3)c2cc1OC", "values": [{"measurement": "AC50", "setting": "[8]", "value": "2.12 µM (active)"}]}]}
